Assay results taken from US20240425497A1, “Cbl-b Inhibitors and Methods of Use Thereof” (ARCUS BIOSCIENCES, INC., priority 2023, published 2024).

Experiments:
Jurkat cells = experiment: IL-2 secretion assay in CD3/CD28-activated Jurkat cells (AlphaLISA); type: cell-based, human; settings: CD3/CD28 activation, 24 h
Experimental: Certain compounds were also evaluated in an IL-2 secretion assay. On the day of the assay, a 16 point, 1:2 master serial dilution of each compound was prepared in Opti-MEM to span a final concentration range of […]. Assays were set up in CORNING® tissue culture-treated 384-well microplates containing 60 nL of each dilution. Jurkat cells grown in RPMI-1640 supplemented with 10% FBS, 1% Glutamax, and 1% Pen/Strep were collected, resuspended in Opti-MEM. 50,000 cells/well and added to the compound plates. After a short spin (1200 rpm for 1 min), the plates were incubated at 37° C. for 1 hour. The cells were activated by adding 15 μL of IMMUNOCULT™ Human CD3/CD28 T Cell Activator (STEMCELL Technologies) diluted in Opti-MEM. After 24 h of incubation at 37° C., aliquots of culture supernatants were transferred to OptiPlate-384 (PerkinElmer) microplates. The level of JIL-2 secretion in the supernatants was then determined using the IL-2 (human) AiphaLISA Detection Kit (PerkinElmer) according to the manufacturer's recommendations. The AiphaLISA signal was measured using an EnVision plate reader (PerkinElmer). EC50 values were determined by fitting the data to a standard 4-parameter logistic equation. See Table 3 for data for select compounds (IL-2 Secretion (EC50)).

Cbl-b = Cbl-b (Homo sapiens (Human), UniProt Q13191); experiment: Cbl-b probe displacement HTRF binding assay; settings: 0.4 nM biotinylated Cbl-b, 150 nM BODIPY probe
Experimental: The affinity with which compounds of the present disclosure bind to Cbl-b was assessed using probe displacement homologous time resolved fluorescence (HTRF) assays. The assays used a BODIPY™ conjugated probe (Example 54 from WO 2020264398) and biotinylated Cbl-b. The assays were performed in assay buffer consisting of 20 mM Hepes, 150 mM NaCl, 0.01% Triton X-100, 0.5 mM TCEP, 0.01% BSA. On the day of the assay, a 20 point, 1:2 master serial dilution of each compound was prepared in DMSO to span a final concentration range of 10 μM to 0 nM. Two hundred nanoliters of diluted compound was added to each well of a 384-well plate. Fifteen microliters of biotinylated-Cbl-b resuspended in assay buffer were added to each well and the plate incubated for 60 minutes at room temperature prior to addition of 5 μL of BODIPY™ probe in assay buffer. Final assay conditions included 0.4 nM of Cbl-b and 150 nM of BODIPY™ probe. After a further 15 minutes of incubation at room temperature, 5 μl of Streptavidin-Terbium cryptate reagent at 5-fold final concentration was added to each well of the 384-well plate. Binding of a probe to Cbl-b results in an increase of HTRF signal. HTRF signal was measured by Envision plate reader, while competition of a compound of the present disclosure with probe results in a decrease of signal. Percentage maximum activity in each test well was calculated based on DMSO (maximum activity, 0% displacement) and no protein control wells (baseline activity, 100% displacement). Binding affinity was determined from a dose response curve fitted using a standard four parameter fit equation. See Table 3 for data for compounds (Cbl-b Binding (IC50)).

Sequence of Cbl-b (Q13191 whole entry, species assumed): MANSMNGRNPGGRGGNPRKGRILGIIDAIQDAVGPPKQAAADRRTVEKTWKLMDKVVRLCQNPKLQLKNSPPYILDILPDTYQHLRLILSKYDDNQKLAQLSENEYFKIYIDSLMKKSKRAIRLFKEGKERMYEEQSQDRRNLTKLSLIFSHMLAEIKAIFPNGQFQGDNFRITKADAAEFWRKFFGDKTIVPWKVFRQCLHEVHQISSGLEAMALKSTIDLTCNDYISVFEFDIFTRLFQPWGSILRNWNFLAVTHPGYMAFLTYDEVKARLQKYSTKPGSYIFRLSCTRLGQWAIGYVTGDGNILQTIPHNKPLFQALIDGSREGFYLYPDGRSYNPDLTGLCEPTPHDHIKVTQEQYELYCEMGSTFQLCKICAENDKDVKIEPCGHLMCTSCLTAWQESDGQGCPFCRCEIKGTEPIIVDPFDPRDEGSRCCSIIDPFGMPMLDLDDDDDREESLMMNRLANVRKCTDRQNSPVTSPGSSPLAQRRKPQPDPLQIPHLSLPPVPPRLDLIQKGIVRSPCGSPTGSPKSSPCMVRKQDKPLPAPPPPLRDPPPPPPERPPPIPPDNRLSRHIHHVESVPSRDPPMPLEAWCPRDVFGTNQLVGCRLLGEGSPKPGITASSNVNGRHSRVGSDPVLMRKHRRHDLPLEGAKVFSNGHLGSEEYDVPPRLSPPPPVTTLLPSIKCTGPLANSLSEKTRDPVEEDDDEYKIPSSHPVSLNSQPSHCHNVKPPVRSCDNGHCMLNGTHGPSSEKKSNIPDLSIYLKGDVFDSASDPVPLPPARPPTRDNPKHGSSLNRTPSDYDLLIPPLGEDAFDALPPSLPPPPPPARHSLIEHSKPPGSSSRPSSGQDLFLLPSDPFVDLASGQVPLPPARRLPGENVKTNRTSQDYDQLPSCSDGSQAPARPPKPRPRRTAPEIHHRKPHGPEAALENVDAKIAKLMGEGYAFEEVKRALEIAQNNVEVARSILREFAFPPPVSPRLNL

Compound | EC50 (Jurkat cells; Homo sapiens) | IC50 (Cbl-b) | EC50 (Jurkat cells)
C[C@H]1CCCN(Cc2cc3c(C#N)cn(-c4cncc(-c5ccc(F)cc5C(=O)N5CC(F)C5)c4)c(=O)c3[nH]2)C1 [Example 24, 2-{[(S)-3-methyl-1-piperidyl]methyl}-6-(5-{4-fluoro-2-[(3-fluoro-1-azetidinyl)carbonyl]phenyl}-3-pyridyl)-7-oxo-1,6-dihydro-1,6-diaza-4-indenecarbonitrile] | 100 to 1000 nM | 100 to 1000 nM | 
CCN(CC)C(=O)c1cc(F)ccc1-c1cc(C2CC2)nc(-n2cc(C3CC3)c3cc(CN4CCC[C@H](C)C4)[nH]c3c2=O)c1 [Example 5, N,N-diethyl2-[2-(2-{[(S)-3-methyl-1-piperidyl]methyl}-4-cyclopropyl-7-oxo-1,6-dihydro-1,6-diaza-6-indenyl)-6-cyclopropyl-4-pyridyl]-5-fluorobenzamide] | 100 to 1000 nM | < 100 nM | 
C[C@H]1CCCN(Cc2cc3c(C4CC4)cn(-c4nc(-c5ccc(F)cc5C(=O)N5CC(F)C5)cc(C5CC5)n4)c(=O)c3[nH]2)C1 [Example 31, 4-cyclopropyl-6-[4-cyclopropyl-6-[4-fluoro-2-(3-fluoroazetidine-1-carbonyl)phenyl]pyrimidin-2-yl]-2-[[(3S)-3-methylpiperidin-1-yl]methyl]—1H-pyrrolo[2,3-c]pyridin-7-one] | > 5000 nM | 1000 to 5000 nM | 
C[C@H]1CCCN(Cc2cc3c(C4CC4)cn(-c4cc(-c5ccc(F)cc5C(=O)NCC(F)(F)F)cc(C5CC5)n4)c(=O)c3[nH]2)C1 [Example 12, N-2,2,2-trifluoroethyl2-[2-(2-{[(S)-3-methyl-1-piperidyl]methyl}-4-cyclopropyl-7-oxo-1,6-dihydro-1,6-diaza-6-indenyl)-6-cyclopropyl-4-pyridyl]-5-fluorobenzamide] | 100 to 1000 nM | 100 to 1000 nM | 
COC1CN(C(=O)c2cc(F)ccc2-c2cc(C3CC3)nc(-n3cc(C4CC4)c4cc(CN5CCC[C@H](C)C5)[nH]c4c3=O)c2)C1 [Example 11, 2-{[(S)-3-methyl-1-piperidyl]methyl}-4-cyclopropyl-6-(6-cyclopropyl-4-{4-fluoro-2-[(3-methoxy-1-azetidinyl)carbonyl]phenyl}-2-pyridyl)-1,6-dihydro-1,6-diaza-7-indenone] | 100 to 1000 nM | < 100 nM | 
C[C@H]1CCCN(Cc2cc3c(C4CC4)cn(-c4cc(-c5ccc(F)cc5C(=O)N5CC(C#N)C5)cc(C5CC5)n4)c(=O)c3[nH]2)C1 [Example 16, 1-{2-[2-(2-{[(S)-3-methyl-1-piperidyl]methyl}-4-cyclopropyl-7-oxo-1,6-dihydro-1,6-diaza-6-indenyl)-6-cyclopropyl-4-pyridyl]-5-fluorobenzoyl}-3-azetidinecarbonitrile] | < 100 nM | < 100 nM | 
C[C@H]1CCCN(Cc2nc3c(C4CC4)cn(-c4cc(-c5ccc(F)cc5C(=O)N5CC(F)C5)cc(C5CC5)c4)c(=O)c3[nH]2)C1 [Example 29, 7-cyclopropyl-5-[3-cyclopropyl-5-[4-fluoro-2-(3-fluoroazetidine-1-carbonyl)phenyl]phenyl]-2-[[(3S)-3-methylpiperidin-1-yl]methyl]-3H-imidazo[4,5-c]pyridin-4-one] | < 100 nM | < 100 nM | 
C[C@H]1CCCN(Cc2cc3c(C#N)cn(-c4cc(-c5ccc(F)c(F)c5C(=O)N(C)C)cc(C5CC5)n4)c(=O)c3[nH]2)C1 [Example 19, N,N-dimethyl6-[2-(2-{[(S)-3-methyl-1-piperidyl]methyl}-4-cyano-7-oxo-1,6-dihydro-1,6-diaza-6-indenyl)-6-cyclopropyl-4-pyridyl]-2,3-difluorobenzamide] | 100 to 1000 nM | < 100 nM | 

Other lines, results leading:

EC50 (Jurkat cells; Homo sapiens) | IC50 (Cbl-b) | EC50 (Jurkat cells) | Compound
< 100 nM | < 100 nM |  | C[C@H]1CCCN(Cc2[nH]c3c(=O)n(-c4cc(-c5ccc(F)cc5C(=O)N5CC(F)C5)cc(C5CC5)n4)cc(C#N)c3c2Cl)C1 [Example 46, 2-{[(S)-3-methyl-1-piperidyl]methyl}-3-chloro-6-(6-cyclopropyl-4-{4-fluoro-2-[(3-fluoro-1-azetidinyl)carbonyl]phenyl}-2-pyridyl)-7-oxo-1,6-dihydro-1,6-diaza-4-indenecarbonitrile]
1000 to 5000 nM | < 100 nM |  | O=C(c1cc(F)ccc1-c1cc(C2CC2)nc(-n2cnc3cc(C4CCNC4)[nH]c3c2=O)c1)N1CC(F)C1 (centres unmarked) [Example 32, 3-[6-cyclopropyl-4-[4-fluoro-2-(3-fluoroazetidine-1-carbonyl)phenyl]pyridin-2-yl]-6-pyrrolidin-3-yl-5H-pyrrolo[3,2-d]pyrimidin-4-one]
100 to 1000 nM | < 100 nM |  | COCCNCc1cc2ncn(-c3cc(-c4ccc(F)cc4C(=O)N4CC(F)(F)C4)cc(C4CC4)c3)c(=O)c2[nH]1 [Example 41, 6-{5-cyclopropyl-2′-[(3,3-difluoro-1-azetidinyl)carbonyl]-4′-fluoro-3-biphenylyl}-2-[(2-methoxyethylamino)methyl]-1,6-dihydro-1,4,6-triaza-7-indenone]
 | < 100 nM |  | CO[C@@H](C)CN(C)Cc1cc2ncn(-c3cc(-c4ccc(F)cc4C(=O)N4CC(F)(F)C4)cc(C4CC4)n3)c(=O)c2[nH]1 [Example 40, 3-[6-cyclopropyl-4-[2-(3,3-difluoroazetidine-1-carbonyl)-4-fluorophenyl]pyridin-2-yl]-6-[[[(2S)-2-methoxypropyl]-methylamino]methyl]-5H-pyrrolo[3,2-d]pyrimidin-4-one]
100 to 1000 nM | < 100 nM |  | O=C(c1cc(F)ccc1-c1cc(C2CC2)nc(-n2cnc3cc(CN4CC5CCC4C5)[nH]c3c2=O)c1)N1CC(F)C1 (centres unmarked) [Example 37, 6-(2-azabicyclo[2.2.1]heptan-2-ylmethyl)-3-[6-cyclopropyl-4-[4-fluoro-2-(3-fluoroazetidine-1-carbonyl)phenyl]pyridin-2-yl]-5H-pyrrolo[3,2-d]pyrimidin-4-one]
100 to 1000 nM | 100 to 1000 nM |  | O=C(c1cc(F)ccc1-c1cc(C2CC2)nc(-n2cnc3cc(C4CC4)[nH]c3c2=O)c1)N1CC(F)C1 [Example 33, 6-cyclopropyl-3-[6-cyclopropyl-4-[4-fluoro-2-(3-fluoroazetidine-1-carbonyl)phenyl]pyridin-2-yl]-5H-pyrrolo[3,2-d]pyrimidin-4-one]
100 to 1000 nM | < 100 nM |  | O=C(c1cc(F)ccc1-c1cc(C2CC2)nc(-n2cc(C(F)(F)F)c3cc(C4COCCN4)[nH]c3c2=O)c1)N1CC(F)C1 (racemic) [Example 55, 6-[6-cyclopropyl-4-[4-fluoro-2-(3-fluoroazetidine-1-carbonyl)phenyl]pyridin-2-yl]-2-morpholin-3-yl-4-(trifluoromethyl)-1H-pyrrolo[2,3-c]pyridin-7-one]
100 to 1000 nM | < 100 nM |  | COC1CN(Cc2cc3ncn(-c4cc(-c5ccc(F)cc5C(=O)N5CC(F)(F)C5)cc(C5CC5)n4)c(=O)c3[nH]2)C1 [Example 43, 6-(6-cyclopropyl-4-{2-[(3,3-difluoro-1-azetidinyl)carbonyl]-4-fluorophenyl}-2-pyridyl)-2-[(3-methoxy-1-azetidinyl)methyl]-1,6-dihydro-1,4,6-triaza-7-indenone]
 |  | < 100 nM | COCCNCc1cc2ncn(-c3cc(-c4ccc(F)cc4C(=O)N4CC(F)(F)C4)cc(C4CC4)c3)c(=O)c2[nH]1 [Example 42, 6-{5-cyclopropyl-2′-[(3,3-difluoro-1-azetidinyl)carbonyl]-4′-fluoro-3-biphenylyl}-2-[(2-methoxyethylamino)methyl]-1,6-dihydro-1,4,6-triaza-7-indenone]
